In patent publication US20230027864A1, “COMPOSITIONS AND METHODS FOR DELIVERY OF AGENTS TO IMMUNE CELLS” (ModernaTX, Inc., priority 2018, published 2023):

Tests used:
T cells [1] = assay: LNP association and GFP mRNA expression in T cells of human PBMCs; assay type: cell-based; conditions: for immune cell delivery potentiating ability in T cells, helper lipid panel: phospholipid component of the LNP, FIG. 32; for immune cell delivery potentiating ability in T cells, amino lipid panel: ionizable lipid component of the LNP, FIG. 30; for delivery and uptake by T cells, only cholesterol as structural lipid: Experiment 2, mean % cells expressing the mRNA relative to positive control (Compound X, β-sitosterol); for immune cell delivery potentiating ability in T cells, sterol panel: structural lipid component of the LNP, FIG. 31
Method: (§1) In a second series of experiments, additional compounds, were tested in the LNPs for their ability to enhance delivery to T cells. For these experiments, the association of the LNP with cells and the expression of mRNA-encoding protein within the transfected cells was assessed at the cell-by-cell level. Peripheral blood mononuclear cells (PBMCs) from human donors were used. PBMCs were predominately T cells (40-60%), B cells (3-15%), and monocytes (15-35%), but also contained small numbers of other cell types. LNPs were incubated with serum or PBS for 30 minutes and then added to the PBMCs. The LNP concentration was 0.050 mg/ml, the LNP volume was 0.1 ml.
(§2) LNPs contained 0.1% Rhodamine-DOPE in addition to the other LNP components to facilitate detection. Thus, the ratios set forth in the tables below include 0.1 for the rhodamine label. For example, 50:10:10:27.9:2:0.1 AL:DSPC:chol:sterol:Cmp 428 indicates 50% amino lipid as the ionizable lipid, 10% DSPC as the phospholipid, 10% cholesterol, 27.9% phytosterol, 2% Compound 428 as the PEG lipid and 0.1% for the rhodamine-DOPE label. To prepare a non-labeled LNP, the same ratios are used except that the 0.1% rhodamine label is omitted and an additional 0.1% of structural lipid (cholesterol or cholesterol/phytosterol blend) is used (e.g., 27.9% becomes 28%).
(§3) Cells were sorted by flow cytometry into subsets based on expression of certain markers: CD3 (T cells), CD20 (B cells), and CD3-, CD20-, CD14+(Monocytes).
(§4) mRNA encoding GFP was used as a model agent to effect expression of an intracellular protein.
(§5) When conducting flow cytometry, the Y-axis was signal from the rhodamine tag on the LNP and the X-axis was the GFP signal showing expression of the protein.
(§6) The “associated” population is any rhodamine+ and/or GFP+ cell and the percent of these cells was calculated by dividing by the total number of cells. The “expression” population is any GFP+ cell and the percent of these cells was calculated by dividing by the total number of cells. The percent of associated cells expressing was obtained by dividing the % expressing cells by the % associated cells.

monocytes = assay: LNP association and GFP mRNA expression in monocytes of human PBMCs; assay type: cell-based; conditions: for immune cell delivery potentiating ability in monocytes, helper lipid panel: phospholipid component, FIG. 39; for immune cell delivery potentiating ability in monocytes, amino lipid panel: ionizable lipid component, FIG. 37; for immune cell delivery potentiating ability in monocytes, sterol panel: structural lipid component, FIG. 38
Method: as §1, with “this Example, LNPs were made with various lipid components and at different ratios and” for “a second series of experiments, additional compounds,”, “tested” for “tested in the LNPs”, “transfect monocytes in vitro.” for “enhance delivery to T cells.”, “(40-60%)” for “(40-60%),”
as §2, §3, §4, §5, §6

T cells [2] = assay: Additional LNPs: T cell transfection in vitro, mOX40L mRNA, labeled LNPs; assay type: cell-based, human; conditions: for immune cell delivery potentiating ability in T cells, amino lipid panel: ionizable lipid component, FIG. 43
Method: In this Example, additional LNPs comprising various lipid components and at different ratios were made and tested for their ability to transfect T cells in vitro. Transfection was performed as in Example 5 using LNPs encapsulating an mRNA encoding mouse OX40L. LNPs were labeled and the results were determined for the mean % cells with LNPs associated, the mean % cells expressing mOX40L and the % of LNP-associated cells expressing mOX40L, as described hereinbefore.

splenic CD3+ T cells = assay: Transfection of splenic T cells in vivo in mice; conditions: for capability to transfect splenic CD3+ T cells in vivo: as ionizable lipid, 0.5 mg/kg i.v., 24 hours, FIG. 36; for transfection of CD3+ T cells in vivo, only cholesterol as structural lipid: FIG. 36 lanes 6 and 8, relative to positive control LNP (Compound X, β-sitosterol)
Method: In this Example, LNPs were made with various lipid components identified in the in vitro screens described in Example 17 and mice were administered the LNPs encapsulating a murine OX40L-encoding mRNA. The compositions shown below in Table 26 were tested in which the ratios of the components in each composition was 50% ionizable lipid, 10% phospholipid, 38.5% structural lipid and 1.5% PEG lipid.
Mice were treated intravenously with a single injection at a dose concentration of 0.1 mg/ml and at a dose level of 0.5 mg/kg. PBS was used as a negative control.

CCCCCCCCCCCCCCCCCC(=O)OCC(COP(=O)([O-])OCC[N+]1(C)CCOCC1)OC(=O)CCCCCCCCCCCCCCCCC (stereo not drawn) [Compound H-409]
immune cell delivery potentiating ability in T cells, helper lipid panel (T cells [1]): exhibited immune cell delivery potentiating ability in T cells
immune cell delivery potentiating ability in monocytes, helper lipid panel (monocytes): exhibited immune cell delivery potentiating ability in monocytes
immune cell delivery potentiating ability in T cells, helper lipid panel (T cells [2]; phospholipid component, FIG. 45): exhibited immune cell delivery potentiating ability in T cells

CCCCCCCCCOC(=O)CCCCCCCN(CCCCCCCC(=O)OC(CCCCCCCC)CCCCCCCC)CCCNS(C)(=O)=O [Compound I-109]
immune cell delivery potentiating ability in T cells, amino lipid panel (T cells [1]): exhibited immune cell delivery potentiating ability in T cells
immune cell delivery potentiating ability in monocytes, amino lipid panel (monocytes): exhibited immune cell delivery potentiating ability in monocytes

CCCCCCCCCCC(=O)CCCCCCCN(CCCCCCCC(=O)OC(CCCCCCCC)CCCCCCCC)CCCNC(=S)N(C)C [Compound I-111]
immune cell delivery potentiating ability in T cells, amino lipid panel (T cells [1]): exhibited immune cell delivery potentiating ability in T cells
immune cell delivery potentiating ability in monocytes, amino lipid panel (monocytes): exhibited immune cell delivery potentiating ability in monocytes

CCCCCCCCCOC(=O)CCCCCCCN(CCCCCCCC(=O)OC(CCCCCCCC)CCCCCCCC)CCCNC(=O)OC [Compound I-181]
immune cell delivery potentiating ability in T cells, amino lipid panel (T cells [1]): exhibited immune cell delivery potentiating ability in T cells
immune cell delivery potentiating ability in monocytes, amino lipid panel (monocytes): exhibited immune cell delivery potentiating ability in monocytes
immune cell delivery potentiating ability in T cells, amino lipid panel (T cells [2]): exhibited immune cell delivery potentiating ability in T cells

CCCCCCCCCOC(=O)CCCCCCCN(CCCCCCCC(=O)OC(CCCCCCCC)CCCCCCCC)CCCNc1c(NC)c(=O)c1=O [Compound I-182, Heptadecan-9-yl 8-((3-((2-(methylamino)-3,4-dioxocyclobut-1-en-1-yl)amino)propyl)(8-(nonyloxy)-8-oxooctyl)amino)octanoate]
immune cell delivery potentiating ability in T cells, amino lipid panel (T cells [1]): exhibited immune cell delivery potentiating ability in T cells
immune cell delivery potentiating ability in monocytes, amino lipid panel (monocytes): exhibited immune cell delivery potentiating ability in monocytes
immune cell delivery potentiating ability in T cells, amino lipid panel (T cells [2]): exhibited immune cell delivery potentiating ability in T cells

CCCCCCCCC(CC)OC(=O)CCCCCCCN(CCCCCCCC(=O)OC(CCCCCCCC)CCCCCCCC)CCCNc1c(NC)c(=O)c1=O (stereo not drawn) [Compound I-301, Heptadecan-9-yl 8-((3-((2-(methylamino)-3,4-dioxocyclobut-1-en-1-yl)amino)propyl)(8-oxo-8-(undecan-3-yloxy)octyl)amino)octanoate]
immune cell delivery potentiating ability in T cells, amino lipid panel (T cells [1]): exhibited immune cell delivery potentiating ability in T cells
capability to transfect splenic CD3+ T cells in vivo (splenic CD3+ T cells): even higher capability to transfect splenic CD3+ T cells in vivo than the positive control LNP containing Compound X
immune cell delivery potentiating ability in T cells, amino lipid panel (T cells [2]): exhibited immune cell delivery potentiating ability in T cells

CCCCCCCCC(CCCCCCCC)OC(=O)CCCCCCCN(CCCCCCCC(=O)OCC(C)CCCCCCC)CCCNc1c(NC)c(=O)c1=O (stereo not drawn) [Compound I-321]
delivery and uptake by T cells, only cholesterol as structural lipid (T cells [1]): effective at potentiating delivery and uptake by T cells
immune cell delivery potentiating ability in T cells, amino lipid panel (T cells [1]): exhibited immune cell delivery potentiating ability in T cells
transfection of CD3+ T cells in vivo, only cholesterol as structural lipid (splenic CD3+ T cells): effective at potentiating transfecting CD3+ T cells in vivo
capability to transfect splenic CD3+ T cells in vivo (splenic CD3+ T cells): even higher capability to transfect splenic CD3+ T cells in vivo than the positive control LNP containing Compound X
immune cell delivery potentiating ability in T cells, amino lipid panel (T cells [2]): exhibited immune cell delivery potentiating ability in T cells

CCCCCCCCCOC(=O)CCCCCCCN(CCCCCCCOC(=O)C(CCCCCCCC)CCCCCCCC)CCCNc1c(NC)c(=O)c1=O [Compound I-326]
delivery and uptake by T cells, only cholesterol as structural lipid (T cells [1]): effective at potentiating delivery and uptake by T cells
immune cell delivery potentiating ability in T cells, amino lipid panel (T cells [1]): exhibited immune cell delivery potentiating ability in T cells
transfection of CD3+ T cells in vivo, only cholesterol as structural lipid (splenic CD3+ T cells): effective at potentiating transfecting CD3+ T cells in vivo
capability to transfect splenic CD3+ T cells in vivo (splenic CD3+ T cells): even higher capability to transfect splenic CD3+ T cells in vivo than the positive control LNP containing Compound X
immune cell delivery potentiating ability in T cells, amino lipid panel (T cells [2]): exhibited immune cell delivery potentiating ability in T cells

CCCCCCCCCCCCCC(=O)OCC(COP(=O)(O)OCCN)OC(=O)CCCCCCCCCCCCC (stereo not drawn) [DMPE]
immune cell delivery potentiating ability in T cells, helper lipid panel (T cells [1]): exhibited immune cell delivery potentiating ability in T cells
immune cell delivery potentiating ability in monocytes, helper lipid panel (monocytes): exhibited immune cell delivery potentiating ability in monocytes

CCCCCCCC/C=C\CCCCCCCC(=O)OC[C@H](COP(=O)([O-])OCC[N+](C)(C)C)OC(=O)CCCCCCC/C=C\CCCCCCCC [DOPC, 1,2-dioleoyl-sn-glycero-3-phosphocholine, reference compound]
immune cell delivery potentiating ability in monocytes, helper lipid panel (monocytes): exhibited immune cell delivery potentiating ability in monocytes

CC(C)[C@H](C)CC[C@@H](C)[C@H]1CC[C@H]2[C@@H]3CC=C4C[C@@H](O)CC[C@]4(C)[C@H]3CC[C@]12C [camposterol]
immune cell delivery potentiating ability in T cells, sterol panel (T cells [1]): exhibited immune cell delivery potentiating ability in T cells
immune cell delivery potentiating ability in monocytes, sterol panel (monocytes): exhibited immune cell delivery potentiating ability in monocytes

CC[C@H](/C=C/[C@@H](C)[C@H]1CC[C@H]2[C@@H]3CC=C4C[C@@H](O)CC[C@]4(C)[C@H]3CC[C@]12C)C(C)C [stigmasterol, reference compound]
immune cell delivery potentiating ability in monocytes, sterol panel (monocytes): exhibited immune cell delivery potentiating ability in monocytes

CC[C@H](CC[C@@H](C)[C@H]1CC[C@H]2[C@@H]3CC[C@H]4C[C@@H](O)CC[C@]4(C)[C@H]3CC[C@]12C)C(C)C [β-sitostanol]
immune cell delivery potentiating ability in T cells, sterol panel (T cells [1]): exhibited immune cell delivery potentiating ability in T cells
immune cell delivery potentiating ability in monocytes, sterol panel (monocytes): exhibited immune cell delivery potentiating ability in monocytes

CC[C@H](CC[C@@H](C)[C@H]1CC[C@H]2[C@@H]3CC=C4C[C@@H](O)CC[C@]4(C)[C@H]3CC[C@]12C)C(C)C [β-sitosterol, beta-sitosterol, reference compound]
immune cell delivery potentiating ability in T cells, sterol panel (T cells [1]): exhibited immune cell delivery potentiating ability in T cells
immune cell delivery potentiating ability in monocytes, sterol panel (monocytes): exhibited immune cell delivery potentiating ability in monocytes
